Activity and inhibition data for one compound are collected here from ChEMBL document CHEMBL3297683.

For test [1], the target named is Lactoylglutathione lyase (Homo sapiens) (UniProt Q04760). In words: Inactivation of human GLO1 expressed in Escherichia coli JM103 at 4.7 to 80.6 uM after 5 to 180 secs.
Test [2] has the same target. Nature of the test: Competitive inhibition of human GLO1 expressed in Escherichia coli JM103 at 0.1 to 0.7 mM by Dixon plot analysis.

Calls of active or inactive are those of the source. No cut-off for these calls is given here.

Chain of Lactoylglutathione lyase (Homo sapiens) (Q04760 2-184 limits assumed): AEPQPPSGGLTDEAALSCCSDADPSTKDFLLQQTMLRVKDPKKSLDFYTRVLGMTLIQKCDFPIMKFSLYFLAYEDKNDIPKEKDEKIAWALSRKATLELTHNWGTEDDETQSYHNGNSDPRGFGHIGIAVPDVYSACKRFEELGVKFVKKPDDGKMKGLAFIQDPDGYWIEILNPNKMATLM

Regarding `N[C@@H](CCC(=O)N[C@@H](CSCC(=O)OCCCCOC(=O)CBr)C(=O)NCC(=O)O)C(=O)O`, the result in test [1] was Active. In test [2], the inhibition entry is “inactive”.
